The values that follow come from patent EP3495350B1, “COMPOUND INHIBITING FORMATION OF C-MYC/MAX/DNA COMPLEX” (National Cancer Center, priority 2016, dated 2018).

The structures appear in SMILES notation. Bounds are passed on as bounds.

The test system of assay [1] is 253J. Put plainly: Cell based assay, cell viability (CellTiter-Glo), 253J. The settings on record: Homo sapiens; 72 hours, 0 to 2 µM; read-out: cell based assay cell line 3 253J IC50. On the procedure: (§1) Commercially available bladder cancer cell lines were treated with trypsin-EDTA and seeded in each well of a 96 well plate, followed by incubation for 24 hours. After incubation, candidate compounds were added to each well at a final concentration of 0 to 2 µM. The compound-treated cells were further incubated for 72 hours. Cell viability was measured using an ATP detection method (CellTiter-Glo Luminescent Cell Viability Assay, Promega).
(§2) The selectivity of the compounds of the present disclosure to cancer cells was evaluated in the same manner as described in "2. Cell based assay".

Assay [2] concerns KU19-19. Put plainly: Cell based assay, cell viability (CellTiter-Glo), KU19-19. The note with it: Homo sapiens, KU-19-19; 72 hours, 0 to 2 µM; read-out: cell based assay cell line 2 KU19-19 IC50. The method, then: as §1, §2
(In general: In ATP-based viability assays light output follows the ATP content of the culture.)

In assay [3] the test system is MBT-2. Put plainly: Cell based assay, cell viability (CellTiter-Glo), MBT-2. The settings on record: 72 hours, 0 to 2 µM; read-out: cell based assay cell line 1 MBT-2 IC50. On the procedure: as §1, §2
Assay [4] relates to UM-UC-3. The assay is described as follows: Cell based assay, cell viability (CellTiter-Glo), UM-UC-3. The settings on record: Homo sapiens, UMUC3; 72 hours, 0 to 2 µM; read-out: cell based assay cell line 4 UM-UC-3 IC50. On the procedure: as §1, §2

What is called IC50 is the concentration that gives 50% inhibition. For `CC(=O)c1c([S+]([O-])Cc2ccc(Cl)cc2)[nH]c2c(Br)ccc(Cl)c2c1=O` (stereo not shown) [Compound 11, 3-acetyl-8-bromo-5-chloro-2-((4-chlorobenzyl)sulfinyl)quinolin-4(1H)-one], the IC50 is 1.41 µM in assay [1], greater than 2 µM in assay [2], greater than 2 µM in assay [3] and 1.49 µM in assay [4].

Turning to `CC(=O)c1c([S+]([O-])c2ccccc2)[nH]c2c(Br)ccc(Cl)c2c1=O` (stereo not shown) [Compound 13, 3-acetyl-8-bromo-5-chloro-2-(phenylsulfinyl)quinolin-4(1H)-one], the IC50 in assay [1], in assay [2], in assay [3] and in assay [4] was greater than 2 µM throughout.

Turning to `COc1ccccc1[S+]([O-])c1[nH]c2c(Br)ccc(Cl)c2c(=O)c1C(C)=O` (stereo not shown) [Compound 15, 3-acetyl-8-bromo-5-chloro-2-((2-methoxyphenyl)sulfinyl)quinolin-4(1H)-one], the IC50 in assay [1] is greater than 2 µM; in assay [2], 1.91 µM; in assay [3] it was greater than 2 µM; in assay [4], greater than 2 µM.

For `CC(=O)c1c([S+]([O-])c2ccc(Br)cc2)[nH]c2c(Br)ccc(Cl)c2c1=O` (stereo not shown) [Compound 17, 3-acetyl-8-bromo-2-((4-bromophenyl)sulfinyl)-5-chloroquinolin-4(1H)-one], the IC50 in assay [1], in assay [2], in assay [3] and in assay [4] was greater than 2 µM each time.

For `CC(=O)c1c([S+]([O-])C(C)c2ccccc2)[nH]c2c(Br)ccc(Cl)c2c1=O` (stereo not shown) [Compound 26, 3-acetyl-8-bromo-5-chloro-2-((1-phenylethyl)sulfinyl)quinolin-4(1H)-one], the IC50 in assay [1], in assay [2], in assay [3] and in assay [4] was greater than 2 µM throughout.

In the case of `CC(=O)c1c([S+]([O-])Cc2cccc(C#N)c2)[nH]c2c(Br)ccc(Cl)c2c1=O` (stereo not shown) [Compound 28, 3-(((3-acetyl-8-bromo-5-chloro-4-oxo-1,4-dihydroquinolin-2-yl)sulfinyl)methyl)benzonitrile], the IC50 in assay [1] turned out to be 0.74 µM; in assay [2] it was 1.46 µM; in assay [3], 0.79 µM; in assay [4] it was 0.79 µM.

With `CC(=O)c1c([S+]([O-])Cc2ccc(F)cc2F)[nH]c2c(Br)ccc(Cl)c2c1=O` (stereo not shown) [Compound 29, 3-acetyl-8-bromo-5-chloro-2-((2,4-difluorobenzyl)sulfinyl)quinolin-4(1H)-one], the IC50 was 0.96 µM in assay [1], 1.68 µM in assay [2], 1.2 µM in assay [3] and 1.13 µM in assay [4].

As for `CC(=O)c1c([S+]([O-])Cc2ccc(F)c(Cl)c2)[nH]c2c(Br)ccc(Cl)c2c1=O` (stereo not shown) [Compound 31, 3-acetyl-8-bromo-5-chloro-2-((3-chloro-4-fluorobenzyl)sulfinyl)quinolin-4(1H)-one], the IC50 was 0.89 µM in assay [1], 1.45 µM in assay [2], 1.28 µM in assay [3] and 1.02 µM in assay [4].

For the compound `CC(=O)c1c(S(=O)(=O)Cc2ccccc2)[nH]c2c(Br)ccc(Cl)c2c1=O` [Compound 34, 3-acetyl-2-(benzylsulfonyl)-8-bromo-5-chloroquinolin-4(1H)-one], the half-maximal inhibitory concentration (IC50) in assay [1], in assay [2], in assay [3] and in assay [4] was greater than 2 µM in each case.

Take `CC(=O)c1c([S+]([O-])Cc2cc(Cl)ccc2Cl)[nH]c2c(Br)ccc(Cl)c2c1=O` (stereo not shown) [Compound 44, 3-acetyl-8-bromo-5-chloro-2-((2,5-dichlorobenzyl)sulfinyl)quinolin-4(1H)-one]: the 50% inhibitory concentration (IC50) in assay [1] stood at 1.24 µM; in assay [2] it was 1.27 µM; in assay [3], 1.15 µM; in assay [4], 0.97 µM.

For `CC(=O)c1c([S+]([O-])Cc2cc(F)cc(F)c2)[nH]c2c(Br)ccc(Cl)c2c1=O` (stereo not shown) [Compound 46, 3-acetyl-8-bromo-5-chloro-2-((3,5-difluorobenzyl)sulfinyl)quinolin-4(1H)-one], the IC50 was 1.96 µM in assay [1], 1.8 µM in assay [2], 1.84 µM in assay [3] and 1.22 µM in assay [4].

Turning to `CC(=O)c1c([S+]([O-])Cc2cccc(I)c2)[nH]c2c(Br)ccc(Cl)c2c1=O` (stereo not shown) [Compound 48, 3-acetyl-8-bromo-5-chloro-2-((3-iodobenzyl)sulfinyl)quinolin-4(1H)-one], the IC50 was greater than 2 µM in assay [1], greater than 2 µM in assay [2], greater than 2 µM in assay [3] and 1.82 µM in assay [4].

With `CC(=O)c1c([S+]([O-])Cc2cccc(F)c2)[nH]c2c(Br)ccc(Cl)c2c1=O` (stereo not shown) [Compound 50, 3-acetyl-8-bromo-5-chloro-2-((3-fluorobenzyl)sulfinyl)quinolin-4(1H)-one], the IC50 came to 1.43 µM in assay [1], 1.69 µM in assay [2], 1.58 µM in assay [3] and 1.26 µM in assay [4].

Take `CC(=O)c1c([S+]([O-])Cc2cc(C)on2)[nH]c2c(Br)ccc(Cl)c2c1=O` (stereo not shown) [Compound 51, 3-acetyl-8-bromo-5-chloro-2-(((5-methylisoxazol-3-yl)methyl)sulfinyl)quinolin-4(1H)-one]: the IC50 in assay [1] stood at 1.13 µM; in assay [2] it was 1.26 µM; in assay [3], 0.76 µM; in assay [4], 0.63 µM.

Consider `CC(=O)c1c([S+]([O-])Cc2ccccc2)nc2c(Br)ccc(Cl)c2c1O` (stereo not shown) [Compound 53, 1-(2-(benzylsulfinyl)-8-bromo-5-chloro-4-hydroxyquinolin-3-yl)ethan-1-one], for which the IC50 in assay [1], in assay [2], in assay [3] and in assay [4] was greater than 2 µM throughout.

Turning to `COc1cccc(C[S+]([O-])c2[nH]c3c(Br)ccc(Cl)c3c(=O)c2C(C)=O)c1` (stereo not shown) [Compound 55, 3-acetyl-8-bromo-5-chloro-2-((3-methoxybenzyl)sulfinyl)quinolin-4(1H)-one], the IC50 was 1.33 µM in assay [1], 1.38 µM in assay [2], greater than 2 µM in assay [3] and 1.58 µM in assay [4].

`CC(=O)c1c([S+]([O-])Cc2ccc(SC(F)(F)F)cc2)[nH]c2c(Br)ccc(Cl)c2c1=O` (stereo not shown) [Compound 56, 3-acetyl-8-bromo-5-chloro-2-((4-((trifluoromethyl)thio)benzyl)sulfinyl)quinolin-4(1H)-one]: the IC50 in assay [1] is 1.11 µM; in assay [2], 0.94 µM; in assay [3], 1.18 µM; in assay [4] it was 1.25 µM.

In the case of `CC(=O)c1c([S+]([O-])Cc2ccc([N+](=O)[O-])cc2)[nH]c2c(Cl)ccc(Cl)c2c1=O` (stereo not shown) [Compound 57, 3-acetyl-5,8-dichloro-2-((4-nitrobenzyl)sulfinyl)quinolin-4(1H)-one], the IC50 in assay [1] was 1.92 µM; in assay [2] it was 1.83 µM; in assay [3], greater than 2 µM; in assay [4], greater than 2 µM.

Consider `CC(=O)c1c([S+]([O-])Cc2ccccc2C#N)[nH]c2c(Br)ccc(Cl)c2c1=O` (stereo not shown) [Compound 58, 2-(((3-acetyl-8-bromo-5-chloro-4-oxo-1,4-dihydroquinolin-2-yl)sulfinyl)methyl)benzonitrile], for which the IC50 in assay [1] amounted to 0.92 µM; in assay [2] it was 0.92 µM; in assay [3] it was 0.86 µM; in assay [4], 1.22 µM.

As for `COc1cc(C[S+]([O-])c2[nH]c3c(Br)ccc(Cl)c3c(=O)c2C(C)=O)cc(OC)c1` (stereo not shown) [Compound 59, 3-acetyl-8-bromo-5-chloro-2-((3,5-dimethoxybenzyl)sulfinyl)quinolin-4(1H)-one], the IC50 in assay [1] stood at 1.14 µM; in assay [2] it was 1.23 µM; in assay [3], 1.3 µM; in assay [4], 1.37 µM.

Take `CC(=O)c1c([S+]([O-])Cc2ccc(C(C)(C)C)cc2)[nH]c2c(Br)ccc(Cl)c2c1=O` (stereo not shown) [Compound 60, 3-acetyl-8-bromo-2-((4-(tert-butyl)benzyl)sulfinyl)-5-chloroquinolin-4(1H)-one]: the IC50 in assay [1] is 1.71 µM; in assay [2], 1.56 µM; in assay [3], greater than 2 µM; in assay [4], greater than 2 µM.

Take `CC(=O)c1c([S+]([O-])Cc2ccc(C(=O)c3ccccc3)cc2)[nH]c2c(Br)ccc(Cl)c2c1=O` (stereo not shown) [Compound 63, 3-acetyl-2-((4-benzoylbenzyl)sulfinyl)-8-bromo-5-chloroquinolin-4(1H)-one]: the IC50 in assay [1], in assay [2], in assay [3] and in assay [4] was greater than 2 µM each time.

For `CC(=O)c1c([S+]([O-])Cc2ccc([S+]([O-])C(F)(F)F)cc2)[nH]c2c(Br)ccc(Cl)c2c1=O` (stereo not shown) [Compound 64, 3-acetyl-8-bromo-5-chloro-2-((4-((trifluoromethyl)sulfinyl)benzyl)sulfinyl)quin olin-4(1H)-one], the IC50 in assay [1] turned out to be 0.95 µM; in assay [2] it was 1.41 µM; in assay [3], 0.84 µM; in assay [4], 1.06 µM.

Consider `CC(=O)c1c([S+]([O-])Cc2ccc(C(F)(F)F)cc2)[nH]c2c(Br)ccc(Cl)c2c1=O` (stereo not shown) [Compound 70, 3-acetyl-8-bromo-5-chloro-2-((4-(trifluoromethyl)benzyl)sulfinyl)quinolin-4(1H)-one], for which the IC50 in assay [1] was 1.04 µM; in assay [2] it was 1.75 µM; in assay [3] it was 1.33 µM; in assay [4], 1.26 µM.

Consider `CC(=O)c1c([S+]([O-])Cc2ccc(OC(F)(F)F)cc2)[nH]c2c(Br)ccc(Cl)c2c1=O` (stereo not shown) [Compound 71, 3-acetyl-8-bromo-5-chloro-2-((4-(trifluoromethoxy)benzyl)sulfinyl)quinolin-4(1H)-one], for which the IC50 was 1.11 µM in assay [1], 1.6 µM in assay [2], 1.47 µM in assay [3] and 1.61 µM in assay [4].
